Test system: Plasmodium berghei
Test: Luciferase/luciferin-expressing antifolate-resistant parasites were used to infect a culture of HepG2 cells that were pre-incubated with compounds. Infected hepatocytes emit light due to the luciferase reaction. Assay results are presented as the percent inhibition of light emission compared to control. […]
Format: functional
Details: sporozoite; for IC90: read-out: LUCIFERASE INFECTION ASSAY - IC90
[1] = read-out: LUCIFERASE INFECTION ASSAY - IC50

Structure (SMILES): O=C(Cn1cnc2sccc2c1=O)c1ccc(C2CCCCC2)cc1
- IC50 (HEPG2TOX_HILL_SLOPE 0.627, HEPG2TOX_R_SQUARED 0.608, PBLUC_HILL_SLOPE 1.31, PBLUC_R_SQUARED 0.795, read-out: LUCIFERASE INFECTION ASSAY - IC50): 2.58 µM
- IC90: > 10 µM

Structure (SMILES): Cc1ccc2c(Cl)cc(Cl)c(OCC(=O)N(C(C)C)C(C)C)c2n1
- IC50 (PBLUC_HILL_SLOPE 0.984, PBLUC_R_SQUARED 0.0595, read-out: LUCIFERASE INFECTION ASSAY - IC50): > 10 µM
- IC90: > 10 µM

Structure (SMILES): COc1ccc(/C(C)=N/NC(=O)c2sc3ccccc3c2Cl)c(O)c1
- IC50 (HEPG2TOX_HILL_SLOPE 4.02, HEPG2TOX_R_SQUARED 0.607, PBLUC_HILL_SLOPE 31, PBLUC_R_SQUARED 0.396, read-out: LUCIFERASE INFECTION ASSAY - IC50): 3.06 µM
- IC90: 3.29 µM

Structure (SMILES): COc1ccc(C2=NN(c3ccccc3)C(c3cn(-c4ccccc4)nc3-c3cccnc3)C2)cc1 (stereo not drawn)
- IC50 (PBLUC_HILL_SLOPE 3.03, PBLUC_R_SQUARED 0.661, read-out: LUCIFERASE INFECTION ASSAY - IC50): 4.51 µM
- IC90: 9.32 µM

Structure (SMILES): CNS(=O)(=O)c1cc(C(=O)OCc2ccc(-c3ccccc3C#N)cc2)n(C)c1
- IC50 (HEPG2TOX_HILL_SLOPE 9.24, HEPG2TOX_R_SQUARED 0.528, PBLUC_HILL_SLOPE 2.62, PBLUC_R_SQUARED 0.748, read-out: LUCIFERASE INFECTION ASSAY - IC50): 5.4 µM
- IC90: > 10 µM

Structure (SMILES): COc1ccc(C(OC[C@H]2O[C@@H](n3cnc4c(N)ncnc43)CC2O)(c2ccccc2)c2ccc(OC)cc2)cc1 (stereo partly drawn)
- IC50 [1]: > 5.96 µM
- IC90: > 5.96 µM

Structure (SMILES): COc1ccc(-c2cnc3sc(NCCc4ccncc4)nn23)cn1
- IC50 [1]: > 9.36 µM
- IC90: > 9.36 µM

Structure (SMILES): O=C(OCc1cccc2ccccc12)C1(c2ccccc2)CCN(S(=O)(=O)c2ccccc2)CC1
- IC50 [1]: 4.79 µM
- IC90: > 10 µM

Structure (SMILES): Cc1ccc(-c2csc3ncn(CC(=O)c4cc(C)n(C5CCS(=O)(=O)C5)c4C)c(=O)c23)cc1 (stereo not drawn)
- IC50 [1]: > 10 µM
- IC90: > 10 µM

Structure (SMILES): COCCn1cnc2cnc(Nc3cccc(F)c3)cc21
- IC50 [1]: > 10 µM
- IC90: > 10 µM

Structure (SMILES): Cc1ccc(C(C)(C)C)cc1S(=O)(=O)Nc1ccc(C(=O)OC(C)c2nc(=O)c3c(C)c(C)sc3[nH]2)cc1 (stereo not drawn)
- IC50 [1]: > 10 µM
- IC90: > 10 µM

Structure (SMILES): O=C(c1cccs1)N1CCN(Cc2csc(C3CCCCC3)n2)CC1
- IC50 (HEPG2TOX_HILL_SLOPE 7.59, HEPG2TOX_R_SQUARED 0.857, PBLUC_HILL_SLOPE 2.36, PBLUC_R_SQUARED 0.0477, read-out: LUCIFERASE INFECTION ASSAY - IC50): 5.47 µM
- IC90: > 10 µM

Structure (SMILES): O=C(N/N=C/c1cc(Cl)ccc1O)N/N=C/c1cc(Cl)ccc1O
- IC50 (HEPG2TOX_HILL_SLOPE 7.47, HEPG2TOX_R_SQUARED 0.53, read-out: LUCIFERASE INFECTION ASSAY - IC50): > 8.99 µM
- IC90: > 8.99 µM

Structure (SMILES): Cc1cc(C2=NN/C(=N\C(C)(C)C)SC2)c(C)n1C(C)C
- IC50 (PBLUC_HILL_SLOPE 15.1, PBLUC_R_SQUARED 0.242, read-out: LUCIFERASE INFECTION ASSAY - IC50): 9.12 µM
- IC90: > 10 µM

Structure (SMILES): CCOC(=O)c1sc(NC(=O)c2cccc(S(=O)(=O)N(C)c3ccc(OC)cc3)c2)cc1C
- IC50 (FFLUC_HILL_SLOPE 3.21, FFLUC_R_SQUARED 0.745, HEPG2TOX_HILL_SLOPE 15.7, HEPG2TOX_R_SQUARED 0.428, PBLUC_HILL_SLOPE 5.31, PBLUC_R_SQUARED 0.793, read-out: LUCIFERASE INFECTION ASSAY - IC50): 6.44 µM
- IC90: 9.74 µM

Structure (SMILES): CC1CCc2ccccc2N1CC(=O)N(CCC(N)=O)Cc1ccccc1 (stereo not drawn)
- IC50 [1]: > 10 µM
- IC90: > 10 µM

Structure (SMILES): O=C(Nc1nc2ccccn2c1C(=O)NC1CCCCC1)c1c(F)ccc(F)c1F
- IC50 [1]: > 7.93 µM
- IC90: > 7.93 µM

Structure (SMILES): CN(C)C(=O)c1ccc(NCC(=O)N2N=C(c3ccc(Cl)cc3)CC2c2ccco2)cc1 (stereo not drawn)
- IC50 (PBLUC_HILL_SLOPE 25.7, PBLUC_R_SQUARED 0.49, read-out: LUCIFERASE INFECTION ASSAY - IC50): 7.54 µM
- IC90: 8.21 µM

Structure (SMILES): CCc1ccc(CN(Cc2cccnc2)C(=O)c2ccc3ccccc3n2)cc1
- IC50 (PBLUC_HILL_SLOPE 15.3, PBLUC_R_SQUARED 0.276, read-out: LUCIFERASE INFECTION ASSAY - IC50): 3.69 µM
- IC90: 4.26 µM

Structure (SMILES): Cc1nc2cc(NC(C)C(=O)Nc3ccc([N+](=O)[O-])cc3Cl)ccc2o1 (stereo not drawn)
- IC50 [1]: > 10 µM
- IC90: > 10 µM

Structure (SMILES): CCOc1cc(/C=C(/C(=O)NCc2ccc(Cl)cc2)c2nc3ccccc3[nH]2)ccc1OC
- IC50 (HEPG2TOX_HILL_SLOPE 5.77, HEPG2TOX_R_SQUARED 0.35, PBLUC_HILL_SLOPE 0.685, PBLUC_R_SQUARED 0.126, read-out: LUCIFERASE INFECTION ASSAY - IC50): > 10 µM
- IC90: > 10 µM

Structure (SMILES): O=C(Nc1ccc(SC(F)(F)F)cc1)Nc1ccc(-n2ccc(C(F)(F)F)n2)cc1
- IC50 (HEPG2TOX_HILL_SLOPE 17.7, HEPG2TOX_R_SQUARED 0.761, PBLUC_HILL_SLOPE 20.9, PBLUC_R_SQUARED 0.513, read-out: LUCIFERASE INFECTION ASSAY - IC50): 2.42 µM
- IC90: 2.69 µM

Structure (SMILES): COc1ccc2oc(C(=O)Nc3nnc(C(C)C)s3)c(C)c2c1
- IC50 [1]: 4.49 µM
- IC90: > 10 µM

Structure (SMILES): CCCCCc1c(C)nc(-c2ccccn2)nc1O
- IC50 [1]: > 12.8 µM
- IC90: > 12.8 µM

Structure (SMILES): CCOc1cc2c(cc1CNC(=O)c1cnc3cc(C)nn3c1C)OC(C)C2 (stereo not drawn)
- IC50 (PBLUC_HILL_SLOPE 2.71, PBLUC_R_SQUARED 0.828, read-out: LUCIFERASE INFECTION ASSAY - IC50): 2.13 µM
- IC90: 4.78 µM

Structure (SMILES): COC(=O)Cc1[nH]n(-c2ccccc2)c(=O)c1C(C)=NCc1cccnc1
- IC50 (HEPG2TOX_HILL_SLOPE 0.403, HEPG2TOX_R_SQUARED 0.018, read-out: LUCIFERASE INFECTION ASSAY - IC50): > 9.06 µM
- IC90: > 9.06 µM

Structure (SMILES): CNc1nc(SCCS(=O)(=O)c2ccccc2)nc2ccccc12
- IC50 (PBLUC_HILL_SLOPE 1.42, PBLUC_R_SQUARED 0.718, read-out: LUCIFERASE INFECTION ASSAY - IC50): 1.45 µM
- IC90: 6.83 µM

Structure (SMILES): Cc1nc(NC(=O)CSc2nnc(-c3c[nH]c4ccccc34)n2C2CC2)c(Cl)cc1Cl
- IC50 (HEPG2TOX_HILL_SLOPE 15.3, 2.10, HEPG2TOX_R_SQUARED 0.288, 0.992, PBLUC_HILL_SLOPE 2.43, PBLUC_R_SQUARED 0.583, read-out: LUCIFERASE INFECTION ASSAY - IC50): 4.48 µM
- IC90: > 10 µM

Structure (SMILES): Cc1c(C)n(-c2nc3ccccc3s2)c2ncnc(NCCCN(C)C)c12
- IC50 (HEPG2TOX_HILL_SLOPE 12.8, HEPG2TOX_R_SQUARED 0.501, PBLUC_HILL_SLOPE 2.59, PBLUC_R_SQUARED 0.498, read-out: LUCIFERASE INFECTION ASSAY - IC50): 7.19 µM
- IC90: > 8.67 µM

Structure (SMILES): COc1ccc(-c2cnc3ccc(NCc4ccc(C)cc4C)nn23)cn1
- IC50 (HEPG2TOX_HILL_SLOPE 9.76, HEPG2TOX_R_SQUARED 0.857, PBLUC_HILL_SLOPE 10.1, PBLUC_R_SQUARED 0.466, read-out: LUCIFERASE INFECTION ASSAY - IC50): 7.25 µM
- IC90: 9.01 µM

Structure (SMILES): Cc1oc(-n2cccc2)c(C#N)c1C(=O)Nc1nc(-c2ccccn2)cs1
- IC50 [1]: 9.43 µM
- IC90: > 10 µM

Structure (SMILES): COc1cc(-c2ccc3ncc(-c4cccs4)n3n2)cc(OC)c1OC
- IC50 (HEPG2TOX_HILL_SLOPE 2.45, HEPG2TOX_R_SQUARED 0.958, PBLUC_HILL_SLOPE 3.17, PBLUC_R_SQUARED 0.64, read-out: LUCIFERASE INFECTION ASSAY - IC50): 2.04 µM
- IC90: 4.08 µM

Structure (SMILES): CCOC(C(=O)Nc1ccccc1Cc1ccccc1)(c1ccccc1)c1ccccc1
- IC50 [1]: > 10 µM
- IC90: > 10 µM

Structure (SMILES): Cc1ccc(C(NCC(=O)Nc2cc(S(C)(=O)=O)ccc2Cl)c2ccccc2)cc1C (stereo not drawn)
- IC50 (PBLUC_HILL_SLOPE 11.2, PBLUC_R_SQUARED 0.465, read-out: LUCIFERASE INFECTION ASSAY - IC50): 3.69 µM
- IC90: 4.49 µM

Structure (SMILES): Clc1cc2c(c3ncccc13)OCN(C1CCCC1)C2
- IC50 (FFLUC_HILL_SLOPE 11.1, FFLUC_R_SQUARED 0.223, HEPG2TOX_HILL_SLOPE 2.6, HEPG2TOX_R_SQUARED 0.787, PBLUC_HILL_SLOPE 4.7, PBLUC_R_SQUARED 0.818, read-out: LUCIFERASE INFECTION ASSAY - IC50): 1.75 µM
- IC90: 2.79 µM

Structure (SMILES): Nc1nccnc1C(=O)Nc1nc2cc3c(cc2s1)OCCO3
- IC50 (HEPG2TOX_HILL_SLOPE 1.04, HEPG2TOX_R_SQUARED 0.527, PBLUC_HILL_SLOPE 12.4, 0.362, PBLUC_R_SQUARED 0.835, 0.759, read-out: LUCIFERASE INFECTION ASSAY - IC50): 0.197 µM
- IC90: 0.434 µM

Structure (SMILES): O=C(Nc1ccc(OC(F)F)c(Cc2ccccc2)c1)c1ccc(-n2ccnc2)nc1
- IC50 (PBLUC_HILL_SLOPE 6.37, PBLUC_R_SQUARED 0.721, read-out: LUCIFERASE INFECTION ASSAY - IC50): 8.94 µM
- IC90: > 10 µM

Structure (SMILES): c1ccn2c(Sc3ncnc4sccc34)nnc2c1
- IC50 (PBLUC_HILL_SLOPE 16.1, PBLUC_R_SQUARED 0.0872, read-out: LUCIFERASE INFECTION ASSAY - IC50): 8.13 µM
- IC90: 9.31 µM

Structure (SMILES): O=C1OC(CC(=O)c2csc3ccccc23)c2ccccc21 (stereo not drawn)
- IC50 [1]: 6.16 µM
- IC90: 8.63 µM

Structure (SMILES): Cc1cc(O)cc2c1C(=O)/C(=C/c1cc(Cl)cc3c1OCOC3)O2
- IC50 (HEPG2TOX_HILL_SLOPE 1.65, HEPG2TOX_R_SQUARED 0.863, PBLUC_HILL_SLOPE 8.6, PBLUC_R_SQUARED 0.504, read-out: LUCIFERASE INFECTION ASSAY - IC50): 8.66 µM
- IC90: > 9.57 µM

Structure (SMILES): Clc1ccc2[nH]c(-c3cccs3)c(-c3ccccc3)c2c1
- IC50 [1]: 5.01 µM
- IC90: > 10.7 µM

Structure (SMILES): CCc1c(C)sc2nc(SCC3COc4ccccc4O3)n(-c3ccc(C)c(C)c3)c(=O)c12 (stereo not drawn)
- IC50 [1]: > 10 µM
- IC90: > 10 µM

Structure (SMILES): Cc1ccsc1C(=O)OCC(=O)Nc1cc(C(C)(C)C)no1
- IC50 [1]: > 10 µM
- IC90: > 10 µM

Structure (SMILES): CCOC(=O)c1c(C)[nH]c(C(=O)Nc2ccnn2C2CCCC2)c1C
- IC50 [1]: 6.86 µM
- IC90: 6.13 µM

Reference: ChEMBL document CHEMBL4483862, “Open-source discovery of chemical leads for next-generation chemoprotective antimalarials” (2018)
